Data on 2 compounds can be found in US10500193B2, “Combination therapy of HSP90 inhibitors with platinum-containing agents” (SYNTA PHARMACEUTICALS CORP., priority 2011, dated 2019).

The test system of this assay is HCT-116 colorectal cancer cells. As to the kind of experiment: Cell viability (alamarBlue) assay in HCT-116 cells. Conditions: 72 hr exposure, four parameter logistic fit. The assay is classed as cell-based, Human. Here is the method: Human HCT-116 colorectal cancer cells (CRC) and MDA-MB-231 breast cancer cells were purchased from the American Type Culture Collection (Manassas, Va.) and grown following ATCC recommendations, in the presence of fetal bovine serum (10%), 2 mM L-glutamine and antibiotics (100 IU/ml penicillin and 100 μg/ml streptomycin, Sigma). Cells were maintained at 37° C., 5% CO2 atmosphere.
Cell viability was measured using the alamarBlue assay (Invitrogen). In brief, cells were plated in 96-well plates in triplicate at 5K cells per well and incubated at 37° C., 5% CO2 atmosphere for 24 hr prior to the addition of drug or vehicle (0.3% DMSO) to the culture medium. After 72 hr, 10 μl/well alamarBlue was added to the wells and incubated for an additional 3 hr at 37° C., 5% CO2 atmosphere. Fluorescence ([…]/590EM nM) was measured with a SpectraMax microplate reader (Molecular Devices) and the resulting data were used to calculate cell viability, normalized to vehicle control. […]
Combinations between ganetespib and cisplatin were then performed in HCT-116 cells concurrently based on the IC50 for each agent in matrix format with 54 combination pairs for each drug. The combined drugs, as well as each drug alone, were incubated with the cells for 3 days and the surviving fraction of cells relative to control was determined using the alamarBlue assay.
(In general: The colour change of resazurin is a common sign of viable cells or microbes.)

For `CC(C)c1cc(-c2nnc(O)n2-c2ccc3c(ccn3C)c2)c(O)cc1O` [ganetespib, 3-(2,4-DIHYDROXY-5- ISOPROPYL-PHENYL)-4-(1- METHYL-INDOL-5-YL)-5- HYDROXY-[1,2,4] TRIAZOLE], the IC50 (Homo sapiens) is approximately 0.032 µM.
For `N.N.[Cl][Pt][Cl]` [cisplatin], the IC50 is approximately 5.7 µM.

As usually defined, the IC50 is the concentration that gives 50% inhibition.
